Assay results: patent publication US20160102336A1, “FLUORESCENT PROBE FOR DETECTING ACTIVITY OF CALPAIN” (THE UNIVERSITY OF TOKYO, priority 2013, published 2016)
*1 amine or outer side, *2 acyl side, *3 side chain or, on linkers, in order; H or OH if unused. Where a SMILES comes first, the peptide text is derived from it. The star is where a group is joined. X1 = Cc1ccccc1C1=C2C=CC(=N)C=C2[Si](C)(C)c2cc(N*)ccc21; Suc = O=C(CCC(=O)[*:2])[*:1]

What was measured:
[1] = test system: Calpain activity in A549 cells; assay: Imaging of calpain activity in A549 cells (confocal microscope); format: cell-based; details: 2-μM Suc-LLVY-SiR600, 20 minutes, HBSS, 37° C.
Method: A549 cells were incubated for 10 minutes at 37° C. using (a) Hank's balanced salt solution (HBSS) containing DMSO as a control, and (b) HBSS containing 20-μM calpeptin, and further incubation for 20 minutes was carried out in 2-μM Suc-LLVY-SiR600. A fluorescence image and a differential interference image were then taken using a confocal microscope. The scale bar in the drawings is 20 μm.
(§1) Statistical analysis was carried out using Student's t-test (n=18).

[2] = Measurement of the optical characteristics; format: physicochemical; details: for Absmax / Emmax / Φn / ε: 0.1 sodium phosphate buffer with pH 3 containing 1% DMSO
Method: The optical characteristics of Suc-LLVY-SiR600 and Boc-LM-SiR600 were measured in a 0.1 sodium phosphate buffer with pH 3 containing 1% DMSO.

[3] = test system: Calpain activity in HeLa cells; assay: Imaging of calpain activity in HeLa cells (confocal microscope); format: cell-based
Method: Hela cells were incubated for 10 minutes at 37° C. using (a) Hank's balanced salt solution (HBSS) containing DMSO as a control, and (b) HBSS containing […] calpeptin, and further incubation for 20 minutes was carried out in 2-μM Suc-LLVY-SiR600. A fluorescence image and a differential interference image were then taken using a confocal microscope. The scale bar in the drawings is 20 μm.
as §1

calpain-1 = target: T1, calpain-1 (Homo sapiens, UniProt P07384); assay: Evaluation as a calpain fluorescent probe (fluorescence spectrum after addition of calpain-1); format: biochemical
T1 sequence (P07384 1-714): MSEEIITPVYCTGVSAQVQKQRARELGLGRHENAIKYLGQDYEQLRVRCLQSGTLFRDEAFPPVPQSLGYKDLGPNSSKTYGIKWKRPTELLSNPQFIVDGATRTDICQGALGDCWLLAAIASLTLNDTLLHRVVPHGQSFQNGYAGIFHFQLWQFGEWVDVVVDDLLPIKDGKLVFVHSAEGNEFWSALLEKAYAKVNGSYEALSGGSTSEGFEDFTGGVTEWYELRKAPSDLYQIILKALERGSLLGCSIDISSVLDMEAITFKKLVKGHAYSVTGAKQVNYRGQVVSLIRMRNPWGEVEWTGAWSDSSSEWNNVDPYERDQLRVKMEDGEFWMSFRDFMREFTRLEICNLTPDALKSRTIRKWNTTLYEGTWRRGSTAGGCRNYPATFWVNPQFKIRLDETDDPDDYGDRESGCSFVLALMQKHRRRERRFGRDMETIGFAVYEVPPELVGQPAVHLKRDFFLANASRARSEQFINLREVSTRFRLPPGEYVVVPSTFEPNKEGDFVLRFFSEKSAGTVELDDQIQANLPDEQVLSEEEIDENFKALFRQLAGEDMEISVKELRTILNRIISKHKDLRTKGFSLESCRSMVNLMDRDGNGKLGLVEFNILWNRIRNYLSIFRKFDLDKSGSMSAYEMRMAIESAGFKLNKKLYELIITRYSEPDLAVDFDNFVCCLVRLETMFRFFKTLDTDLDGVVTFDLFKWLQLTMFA
T1 sequence (P04632 1-268 partner): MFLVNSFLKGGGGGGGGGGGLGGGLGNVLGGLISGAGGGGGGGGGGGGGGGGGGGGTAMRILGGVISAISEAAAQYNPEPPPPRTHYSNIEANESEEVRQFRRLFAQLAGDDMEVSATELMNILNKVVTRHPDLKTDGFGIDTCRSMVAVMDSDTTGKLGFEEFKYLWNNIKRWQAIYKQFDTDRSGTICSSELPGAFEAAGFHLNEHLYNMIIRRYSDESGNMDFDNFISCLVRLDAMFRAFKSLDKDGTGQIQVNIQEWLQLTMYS
Method: FIGS. 1(c) to 1(e) show the fluorescence spectrum 10 to 60 minutes later from addition of 5 μg calpain-1 to the Suc-LLVY-SiR600 solution (2 μM).
In FIGS. 1(b) to 1(e), the reaction was carried out in a 0.75-mL of 20-mM HEPES buffer solution (pH 7.4) containing 100-μM DTT, 10% glycerol, 0.1% CHAPS, 100-mM NaCl, 1-mM EDTA, and 1.5-mM CaCl2, and containing 1% DMSO as a cosolvent.
In FIG. 1(d), the reaction was carried out in the absence of 1.5-mM CaCl2, and in FIG. 1(e), the reaction was carried out in the presence of 1-μM calpeptin.
The reaction temperature was 25° C. in FIGS. 1(b), 1(d), and 1(e), and 37° C. in FIG. 1(c).
In FIGS. 2(b) and 2(c), the reaction was carried out in a 0.75-mL of 20-mM HEPES buffer solution (pH 7.4) containing 100-μM DTT, 10% glycerol, 0.1% CHAPS, 100-mM NaCl, 1-mM EDTA, and 1.5-mM CaCl2, and containing 1% DMSO as a cosolvent. In FIG. 2(c), the reaction was carried out in the presence of 1-μM calpeptin, and in FIG. 2(b), the reaction was carried out in the absence of calpeptin.
The reaction temperature was 25° C. in FIGS. 2(b) and 2(c), and the excitation wavelength was 593 nm.

| Compound | visualization of calpain activity in A549 cells [1] | Absmax [2] [nm] | Emmax [2] [nm] | Φn [2] | ε [2] | absorption of light near maximum absorption (593 nm) of 2MeSiR600 ([2]; near 593 nm) | visualization of calpain activity in HeLa cells ([3]; 2-μM Suc-LLVY-SiR600, 20 minutes, HBSS, 37° C.) | increase in fluorescence in a solution that does not contain Ca^2+ (calpain-1; probe 2 μM, 5 μg calpain-1, 10 to 60 minutes, absence of 1.5-mM CaCl2, 25° C.) | fluorescence after the reaction with calpain-1 (calpain-1; probe 2 μM, 5 μg calpain-1, 180 minutes, HEPES buffer pH 7.4 with 1.5-mM CaCl2, 25° C., excitation 593 nm) | fluorescence before the reaction with calpain-1 (calpain-1; probe 2 μM, excitation 593 nm, before addition of calpain-1, 25° C.) | fluorescence intensity in HeLa cells on addition of calpeptin ([3]; 20-11M calpeptin 10 minutes at 37° C., then 2-μM Suc-LLVY-SiR600 20 minutes) | increase in fluorescence of Boc-LM-SiR600 with calpain-1 when calpeptin was added (calpain-1; 1-μM calpeptin, Boc-LM-SiR600 2 μM, 5 μg calpain-1, 25° C.) | increase in fluorescence of Suc-LLVY-SiR600 with calpain-1 when calpeptin is added (calpain-1; 1-μM calpeptin, Suc-LLVY-SiR600 2 μM, 5 μg calpain-1, 25° C.) |
| --- | --- | --- | --- | --- | --- | --- | --- | --- | --- | --- | --- | --- | --- |
| Cc1ccccc1C1=C2C=CC(=N)C=C2[Si](C)(C)c2cc(NC(=O)[C@H](Cc3ccc(O)cc3)NC(=O)[C@@H](NC(=O)[C@H](CC(C)C)NC(=O)[C@H](CC(C)C)NC(=O)CCC(=O)O)C(C)C)ccc21 [Suc-LLVY-SiR600] (Suc-LLVY-X1) | calpain activity in cells was successfully visualized | 497 | 590 | 0.03 | 25,000 M^−1cm^−1 | did not absorb light | calpain activity in HeLa cells can be monitored | an increase in fluorescence does not occur | high-intensity fluorescence was observed | fluorescence was mostly unobserved |  |  |  |
| 2Me SiR600 [reference compound] |  | 593 | 613 | 0.38 | 91,000 M^−1cm^−1 |  |  |  |  |  |  |  |  |
| CCCC[C@@H](C=O)NC(=O)[C@H](CC(C)C)NC(=O)OCc1ccccc1 [calpeptin, reference compound] |  |  |  |  |  |  |  |  |  |  | fluorescence intensity in the cells was reduced | an increase in fluorescence did not occur | an increase in fluorescence does not occur |
